Assay results from the supplement of paper PMC10307832.

Columns and labels:
Assay in all cases: relative viability (nuclei count vs DMSO), 5 days (fraction); higher = more cells survive
RERF-LC-KJ = system: RERF-LC-KJ
Method in brief: (§1)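 Values are medians from duplicate plates. Each reflects relative viability, defined as the nuclei count of treated wells over that of vehicle wells. Lung cancer cell lines in 1536-well plates were pin-tool dosed one day after seeding with one drug alone or with a fixed anchor-drug dose plus five library-drug doses (not always all listed) in √10 steps, then fixed, stained and imaged at 4× after 5 days.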

CAL-12T = system: CAL-12T
Method in brief: as §1

NCI-H1650 = system: NCI-H1650
Method in brief: as §1

ABC-1 = system: ABC-1
Method in brief: as §1

PC-3 [JPC-3] = system: PC-3 [JPC-3]
Method in brief: as §1

NCI-H1563 = system: NCI-H1563
Method in brief: as §1

NCI-H520 = system: NCI-H520
Method in brief: as §1

NCI-H2405 = system: NCI-H2405
Method in brief: as §1

NCI-H2228 = system: NCI-H2228
Method in brief: as §1

NCI-H322M = system: NCI-H322M
Method in brief: as §1

HCC-15 = system: HCC-15
Method in brief: as §1

NCI-H661 = system: NCI-H661
Method in brief: as §1

SW 1573 = system: SW 1573
Method in brief: as §1

EKVX = system: EKVX
Method in brief: as §1

COR-L23 = system: COR-L23
Method in brief: as §1

NCI-H1734 = system: NCI-H1734
Method in brief: as §1

HCC-827 = system: HCC-827
Method in brief: as §1

PC-14 = system: PC-14
Method in brief: as §1

NCI-H1437 = system: NCI-H1437
Method in brief: as §1

H3255 = system: H3255
Method in brief: as §1

NCI-H2342 = system: NCI-H2342
Method in brief: as §1

LK-2 = system: LK-2
Method in brief: as §1

NCI-H1355 = system: NCI-H1355
Method in brief: as §1

C=C1C(=O)O[C@@H](CCCCCCCC)[C@@H]1C(=O)O [C-75] + COc1cc2c(Oc3ccc(NC(=O)C4(C(=O)Nc5ccc(F)cc5)CC4)cc3F)ccnc2cc1OCCCN1CCOCC1 [Foretinib] (partner 0.25 µM)
relative viability (RERF-LC-KJ; first compound 0.08 µM): 0.94 | relative viability (RERF-LC-KJ; first compound 0.253 µM): 0.973 | relative viability (RERF-LC-KJ; first compound 0.8 µM): 0.909 | relative viability (RERF-LC-KJ; first compound 2.53 µM): 0.797 | relative viability (RERF-LC-KJ; first compound 8 µM): 0.961 | relative viability (CAL-12T; first compound 0.08 µM): 1.17 | relative viability (CAL-12T; first compound 0.253 µM): 1.34 | relative viability (CAL-12T; first compound 0.8 µM): 1.07 | relative viability (CAL-12T; first compound 2.53 µM): 1.05 | relative viability (CAL-12T; first compound 8 µM): 1.25 | relative viability (NCI-H1650; first compound 0.08 µM): 1.2 | relative viability (NCI-H1650; first compound 0.253 µM): 1.41 | relative viability (NCI-H1650; first compound 2.53 µM): 1.11 | relative viability (NCI-H1650; first compound 8 µM): 1.04 | relative viability (ABC-1; first compound 0.08 µM): 1.16 | relative viability (ABC-1; first compound 0.253 µM): 1.24 | relative viability (ABC-1; first compound 0.8 µM): 0.913 | relative viability (ABC-1; first compound 2.53 µM): 1.18 | relative viability (ABC-1; first compound 8 µM): 0.81 | relative viability (PC-3 [JPC-3]; first compound 0.08 µM): 1.05 | relative viability (PC-3 [JPC-3]; first compound 0.253 µM): 1.02 | relative viability (PC-3 [JPC-3]; first compound 0.8 µM): 1.06 | relative viability (PC-3 [JPC-3]; first compound 2.53 µM): 1.06 | relative viability (PC-3 [JPC-3]; first compound 8 µM): 1.2 | relative viability (NCI-H1563; first compound 0.08 µM): 0.953 | relative viability (NCI-H1563; first compound 0.253 µM): 0.955 | relative viability (NCI-H1563; first compound 0.8 µM): 0.883 | relative viability (NCI-H1563; first compound 2.53 µM): 0.844 | relative viability (NCI-H1563; first compound 8 µM): 0.877 | relative viability (NCI-H520; first compound 0.08 µM): 0.728 | relative viability (NCI-H520; first compound 0.253 µM): 0.95 | relative viability (NCI-H520; first compound 0.8 µM): 0.831 | relative viability (NCI-H520; first compound 2.53 µM): 0.909 | relative viability (NCI-H520; first compound 8 µM): 0.794 | relative viability (NCI-H2405; first compound 0.08 µM): 1.05 | relative viability (NCI-H2405; first compound 0.253 µM): 1 | relative viability (NCI-H2405; first compound 0.8 µM): 1.05 | relative viability (NCI-H2405; first compound 2.53 µM): 0.882 | relative viability (NCI-H2405; first compound 8 µM): 1.05 | relative viability (NCI-H2228; first compound 0.08 µM): 0.803 | relative viability (NCI-H2228; first compound 0.253 µM): 0.919 | relative viability (NCI-H2228; first compound 0.8 µM): 0.85 | relative viability (NCI-H2228; first compound 2.53 µM): 0.839 | relative viability (NCI-H2228; first compound 8 µM): 0.863 | relative viability (NCI-H322M; first compound 0.08 µM): 0.928 | relative viability (NCI-H322M; first compound 0.253 µM): 1.33 | relative viability (NCI-H322M; first compound 0.8 µM): 0.839 | relative viability (NCI-H322M; first compound 2.53 µM): 0.902 | relative viability (NCI-H322M; first compound 8 µM): 0.964 | relative viability (HCC-15; first compound 0.08 µM): 0.949 | relative viability (HCC-15; first compound 0.253 µM): 1.01 | relative viability (HCC-15; first compound 0.8 µM): 0.956 | relative viability (HCC-15; first compound 2.53 µM): 1 | relative viability (HCC-15; first compound 8 µM): 0.931 | relative viability (NCI-H661; first compound 0.08 µM): 1.06 | relative viability (NCI-H661; first compound 0.253 µM): 1.01 | relative viability (NCI-H661; first compound 0.8 µM): 0.998 | relative viability (NCI-H661; first compound 2.53 µM): 0.901 | relative viability (NCI-H661; first compound 8 µM): 0.896 | relative viability (SW 1573; first compound 0.08 µM): 1.03 | relative viability (SW 1573; first compound 0.253 µM): 0.943 | relative viability (SW 1573; first compound 0.8 µM): 0.951 | relative viability (SW 1573; first compound 2.53 µM): 0.74 | relative viability (SW 1573; first compound 8 µM): 0.731 | relative viability (EKVX; first compound 0.08 µM): 0.644 | relative viability (EKVX; first compound 0.253 µM): 0.925 | relative viability (EKVX; first compound 0.8 µM): 0.782 | relative viability (EKVX; first compound 8 µM): 1.06 | relative viability (COR-L23; first compound 0.08 µM): 0.903 | relative viability (COR-L23; first compound 0.253 µM): 1 | relative viability (COR-L23; first compound 0.8 µM): 0.856 | relative viability (COR-L23; first compound 2.53 µM): 0.9 | relative viability (COR-L23; first compound 8 µM): 0.965 | relative viability (NCI-H1734; first compound 0.08 µM): 0.942 | relative viability (NCI-H1734; first compound 0.253 µM): 0.819 | relative viability (NCI-H1734; first compound 0.8 µM): 0.78 | relative viability (NCI-H1734; first compound 2.53 µM): 0.476 | relative viability (NCI-H1734; first compound 8 µM): 0.748 | relative viability (HCC-827; first compound 0.08 µM): 1.02 | relative viability (HCC-827; first compound 0.253 µM): 1.05 | relative viability (HCC-827; first compound 0.8 µM): 1.04 | relative viability (HCC-827; first compound 2.53 µM): 0.965 | relative viability (HCC-827; first compound 8 µM): 0.945 | relative viability (PC-14; first compound 0.08 µM): 0.949 | relative viability (PC-14; first compound 0.253 µM): 0.911 | relative viability (PC-14; first compound 0.8 µM): 0.956 | relative viability (PC-14; first compound 2.53 µM): 0.74 | relative viability (PC-14; first compound 8 µM): 0.891 | relative viability (NCI-H1437; first compound 0.08 µM): 1.27 | relative viability (NCI-H1437; first compound 0.253 µM): 1.45 | relative viability (NCI-H1437; first compound 0.8 µM): 1.28 | relative viability (NCI-H1437; first compound 2.53 µM): 1.13 | relative viability (NCI-H1437; first compound 8 µM): 1.23 | relative viability (H3255; first compound 0.08 µM): 0.837 | relative viability (H3255; first compound 0.253 µM): 0.927 | relative viability (H3255; first compound 0.8 µM): 0.73 | relative viability (H3255; first compound 2.53 µM): 0.736 | relative viability (H3255; first compound 8 µM): 0.983 | relative viability (NCI-H2342; first compound 0.08 µM): 1.11 | relative viability (NCI-H2342; first compound 0.253 µM): 1.13 | relative viability (NCI-H2342; first compound 0.8 µM): 1.04 | relative viability (NCI-H2342; first compound 2.53 µM): 0.923 | relative viability (NCI-H2342; first compound 8 µM): 1.17 | relative viability (LK-2; first compound 0.08 µM): 0.944 | relative viability (LK-2; first compound 0.253 µM): 1.23 | relative viability (LK-2; first compound 0.8 µM): 1.15 | relative viability (LK-2; first compound 2.53 µM): 1.35 | relative viability (LK-2; first compound 8 µM): 1.06 | relative viability (NCI-H1355; first compound 0.08 µM): 0.948 | relative viability (NCI-H1355; first compound 0.253 µM): 0.892 | relative viability (NCI-H1355; first compound 0.8 µM): 0.972 | relative viability (NCI-H1355; first compound 2.53 µM): 0.927 | relative viability (NCI-H1355; first compound 8 µM): 0.958
